Biological target: T1, pig T1R2–T1R3 (Sus scrofa, UniProt I1ZBR6+Q0EF93)
T1 construct: gene TAS1R2; heterodimer; full-length, custom-synthesised genes in modified pcDNA3/TO; N-terminal rat sst3 tags, C-terminal FLAG or HSV tags; HEK293PEAKrapid cells stably expressing Galpha15
T1 sequence (I1ZBR6 20-835): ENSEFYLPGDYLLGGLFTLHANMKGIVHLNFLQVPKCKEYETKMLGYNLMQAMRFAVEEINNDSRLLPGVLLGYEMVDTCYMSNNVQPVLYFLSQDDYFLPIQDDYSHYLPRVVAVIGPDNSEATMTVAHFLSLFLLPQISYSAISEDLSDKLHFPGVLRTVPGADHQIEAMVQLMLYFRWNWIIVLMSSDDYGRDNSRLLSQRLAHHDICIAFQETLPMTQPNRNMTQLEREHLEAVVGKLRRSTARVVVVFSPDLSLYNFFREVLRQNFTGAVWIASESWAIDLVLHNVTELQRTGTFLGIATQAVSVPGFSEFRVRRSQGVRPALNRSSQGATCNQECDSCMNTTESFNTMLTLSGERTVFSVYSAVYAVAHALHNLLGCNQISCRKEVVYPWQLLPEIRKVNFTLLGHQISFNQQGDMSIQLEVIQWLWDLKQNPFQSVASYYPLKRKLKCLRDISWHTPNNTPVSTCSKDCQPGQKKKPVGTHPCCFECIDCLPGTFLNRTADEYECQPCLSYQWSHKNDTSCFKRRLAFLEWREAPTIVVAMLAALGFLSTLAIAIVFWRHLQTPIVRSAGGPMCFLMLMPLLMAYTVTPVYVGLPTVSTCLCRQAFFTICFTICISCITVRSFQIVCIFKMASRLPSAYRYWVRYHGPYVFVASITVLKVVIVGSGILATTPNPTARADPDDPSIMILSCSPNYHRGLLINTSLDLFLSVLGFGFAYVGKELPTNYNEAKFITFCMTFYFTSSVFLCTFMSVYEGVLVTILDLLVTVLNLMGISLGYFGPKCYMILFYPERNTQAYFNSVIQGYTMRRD
T1 sequence (Q0EF93 19-855): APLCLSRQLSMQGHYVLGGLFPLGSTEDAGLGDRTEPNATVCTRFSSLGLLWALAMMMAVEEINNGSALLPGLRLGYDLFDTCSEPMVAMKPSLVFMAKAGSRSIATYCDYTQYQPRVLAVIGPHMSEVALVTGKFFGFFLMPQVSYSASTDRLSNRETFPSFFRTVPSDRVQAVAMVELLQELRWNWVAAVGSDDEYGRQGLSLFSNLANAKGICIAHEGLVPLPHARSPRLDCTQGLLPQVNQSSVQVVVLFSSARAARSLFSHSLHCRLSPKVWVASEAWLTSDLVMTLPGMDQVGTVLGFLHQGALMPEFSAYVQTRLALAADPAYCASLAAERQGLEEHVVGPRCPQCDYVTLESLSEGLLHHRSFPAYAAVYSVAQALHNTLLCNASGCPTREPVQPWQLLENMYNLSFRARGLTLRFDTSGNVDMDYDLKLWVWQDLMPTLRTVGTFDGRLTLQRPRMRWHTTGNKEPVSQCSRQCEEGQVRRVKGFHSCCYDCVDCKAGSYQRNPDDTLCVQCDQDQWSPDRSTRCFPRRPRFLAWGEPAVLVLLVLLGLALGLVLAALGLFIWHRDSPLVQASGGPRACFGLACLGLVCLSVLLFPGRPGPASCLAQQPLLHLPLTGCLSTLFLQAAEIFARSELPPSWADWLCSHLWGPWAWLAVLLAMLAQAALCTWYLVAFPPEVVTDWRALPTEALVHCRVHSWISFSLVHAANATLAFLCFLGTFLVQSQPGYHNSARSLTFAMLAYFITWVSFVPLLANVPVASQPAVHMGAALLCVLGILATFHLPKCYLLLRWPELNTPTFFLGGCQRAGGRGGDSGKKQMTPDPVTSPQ
Assay: calcium mobilisation (Fluo-4), FlexStation3
Format: cell-based
Conditions: agonist; transfected HEK293PEAKrapid Galpha15 cells; mock-transfected control; curves in mg/mL

Structure (SMILES): COc1cc(C=O)ccc1O [vanillin]
- EC50: activation in response to stimulation with either each sweetener component of SMF (A)

Source: article PMC12073725, “Luminal Sweet Sensing and Enteric Nervous System Participate in Regulation of Intestinal Glucose Transporter, GLUT2” (Nutrients, 2025)
